Earlier results as cited in publication PMC9906001 (Pulmonary Circulation, 2023).

Test system: Japanese patients with pulmonary arterial hypertension
Details: lowest value among 5, 15, or 30 min after inhalation at Week 12, IBUKI study; cited from earlier work

SMILES: CC#CCC(C)[C@H](O)/C=C/[C@@H]1[C@H]2C/C(=C/CCCC(=O)O)C[C@H]2C[C@H]1O (stereo partly shown) [iloprost]
- Best change from baseline in mPAP: −6.75 mmHg
